We go through 5 compounds from US20230190650A1 (The University of North Carolina at Chapel Hill, priority 2020, published 2023).

The logP is a log measure of how a compound divides between an organic and an aqueous phase. Usually pKa stands for the pH at which an ionisable group is half protonated.

Molecules are shown by their SMILES. Counter-ions that a name gives are not always drawn.

The conditions of series [1]: local anesthetic activity profile; cited from earlier work.
Series [2] can be described thus: In vitro dissolution testing of LBB-111 (release into PBS from 3D printed socket). Format: physicochemical. Particulars: from LBB-111; PBS pH 7.4, 37° C. As to the method:
As a first step to approximate release properties of LBB-111, we performed in vitro dissolution testing under various conditions. […] Mixing was accomplished using the smaller “mini” spin paddles at 59 rpm. Dissolution media [900 mL Phosphate buffered saline (PBS), pH 7.4] was equilibrated at 37° C. overnight before the start of a run. To mimic a human molar socket, cylindrical chambers with internal dimensions approximately 1 cm tall and 1 cm in diameter, with a high infill base to give the socket weight and stability were 3D printed at the UNC BeAM […] using an Ultimaker 3. Sockets were filled to the rim with formulation using an 18 g needle, and the formulation weight (around 0.8 g for these sockets) was recorded. The flat base of the socket was placed on the bottom of each dissolution chamber and mixing initiated. […] Referring now to FIG. 6, the graph illustrates drug released into PBS medium plotted as the fraction of the total that was present in the formulation at the start (% released). […] Formulation samples were dissolved in 19-times their weight (final conc. 5% wt) 200-proof ethanol, the ethanol dissolved samples were then diluted 5-fold into distilled water, and 10 μL of this dilution was injected.

For series [3] the following is noted: cited from earlier work; for logD7.4: pH 7.4.
Series [4] can be described thus: Partitioning of small molecules between aqueous phase and oily eutectic. Format: physicochemical. Conditions: after 10 minutes of mixing; 0.5 g/L bupivacaine-HCl, 5 g/L chlorobutanol, 25 g/L benzyl alcohol.
The procedure of series [5]:
(§1) Identical samples were prepared with 0.5 g/L EDTA added as preservative). These aliquots were quantified by HPLC, alongside aliquots of the formulation (both with and without EDTA) treated in the same manner, which were dissolved in ethanol immediately before quantification.
(§2) The column was a YMC-Pack Pro C18 column (3 µm particle size, 120 Å pore size, 4.6 x 150 mm) and mobile phase was 30 mM potassium phosphate, 0.16% trimethylamine, adjusted to pH 4.9 with phosphoric acid, 30% Acetonitrile.
(§3) “Fridge” samples stored at 4° C., “Heat” at 40° C., “Light” on bench in clear vials. An “E” after the storage condition indicates samples with 5 g/L EDTA added as preservative.

Series [6] is described as follows: Stability of drugs in the anesthetic formulation (HPLC). In kind it is physicochemical. Particulars: eutectic emulsion formulation. As to the method:
as §1, §2, §3

`CCCCN1CCCCC1C(=O)Nc1c(C)cccc1C` (stereo not shown) [Bupivacaine]: in series [1], the Duration entry is “Long”, the Onset result is given as “Moderate” and the Potency result is recorded as “High”. The relative release rate entry in series [2] is listed as “slowest”. Further, in series [3], the logP is 3.41 and the logD7.4 was 2.39.
As for `OCc1ccccc1` [benzyl alcohol], the “presence in the aqueous phase after mixing with the eutectic” value in series [4] is “undetectable”.
In the case of `CCN(CC)CC(=O)Nc1c(C)cccc1C` [Lidocaine], in series [1], the Duration entry was “Moderate”, the Onset entry was “Fast” and the Potency result is listed as “Medium”. In series [5], the degradation in solution entry is on record as “almost undetectable” and the “degradation in solution, Heat sample with EDTA” value is on record as “some lidocaine degradation”.
Consider `CCCCN1CCCCC1C(=O)Nc1c(C)cccc1C` (stereo not shown) [bupivacaine-HCl, bupivacaine hydrochloride], for which the “presence in the aqueous phase after mixing with the eutectic” value in series [4] is “undetectable”.
For the compound `CCOC(=O)c1ccc(N)cc1` [Benzocaine], in series [1], the Duration entry is recorded as “Short”, the Onset result was “Fast” and the Potency entry is given as “Low”. For the same compound, the relative release rate result in series [2] is on record as “fastest”. The “degradation in the formulation without EDTA” value in series [6] is “lack of benzocaine degradation”. In addition, the degradation in solution result in series [5] is reported as “almost undetectable”. Further, the “time to becoming undetectable in solution” value in series [5] (saliva analogue buffer, light or heat (40° C.) conditions, without EDTA) is at most 10 days. In series [3], the pKa is recorded as 2.8 and the logD7.4 is given as 1.86.
